{
  "source": "ChEMBL document CHEMBL1146060",
  "about": "“Guanidinylated 2,5-dideoxystreptamine derivatives as anthrax lethal factor inhibitors” (Bioorg Med Chem Lett, 2006)",
  "data": [
    {"target": "T1, Lethal factor (Bacillus anthracis, UniProt P15917)", "T1 sequence (P15917 whole entry)": "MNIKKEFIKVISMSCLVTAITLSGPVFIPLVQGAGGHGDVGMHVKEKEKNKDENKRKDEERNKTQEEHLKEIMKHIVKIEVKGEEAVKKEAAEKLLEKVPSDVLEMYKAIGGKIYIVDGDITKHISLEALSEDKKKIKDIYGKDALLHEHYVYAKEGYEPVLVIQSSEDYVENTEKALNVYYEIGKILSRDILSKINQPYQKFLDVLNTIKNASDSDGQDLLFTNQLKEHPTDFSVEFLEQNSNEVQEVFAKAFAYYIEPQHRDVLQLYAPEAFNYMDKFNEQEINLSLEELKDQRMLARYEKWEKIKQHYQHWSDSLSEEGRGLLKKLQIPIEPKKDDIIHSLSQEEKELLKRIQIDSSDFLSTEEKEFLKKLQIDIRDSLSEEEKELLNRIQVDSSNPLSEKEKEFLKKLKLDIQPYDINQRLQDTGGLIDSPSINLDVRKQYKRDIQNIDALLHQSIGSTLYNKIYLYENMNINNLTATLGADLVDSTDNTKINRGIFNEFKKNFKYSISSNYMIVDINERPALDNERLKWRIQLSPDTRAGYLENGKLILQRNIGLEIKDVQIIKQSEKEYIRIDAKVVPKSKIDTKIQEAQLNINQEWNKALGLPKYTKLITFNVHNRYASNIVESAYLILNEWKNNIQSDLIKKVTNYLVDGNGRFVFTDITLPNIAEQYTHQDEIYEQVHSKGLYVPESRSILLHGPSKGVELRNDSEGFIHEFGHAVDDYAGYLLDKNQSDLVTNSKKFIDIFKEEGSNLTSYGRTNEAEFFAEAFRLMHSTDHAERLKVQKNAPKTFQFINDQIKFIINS", "experiment": "Inhibition of Bacillus anthracis LF by FRET assay", "conditions": "read-out: Ki app", "units": {"Ki": "µM"}, "values": [
      {"smiles": "N=C(N)Nc1ccc([C@H]2C[C@@H](O)[C@H](NC(=N)N)C[C@@H]2NC(=N)N)nc1", "Ki": 6.6},
      {"smiles": "N=C(N)N[C@H]1C[C@@H](NC(=N)N)[C@H](O)C[C@@H]1c1ccc2[nH]c(N)nc2c1", "Ki": 154},
      {"smiles": "N=C(N)Nc1ccc([C@H]2C[C@@H](O)[C@H](NC(=N)N)C[C@@H]2NC(=N)N)c(NC(=N)N)c1", "Ki": 0.6},
      {"smiles": "N=C(N)Nc1cc(NC(=N)N)c2ccccc2c1[C@H]1C[C@@H](O)[C@H](NC(=N)N)C[C@@H]1NC(=N)N", "Ki": 10.7},
      {"smiles": "N=C(N)Nc1ccccc1NC(=O)O[C@H]1C[C@@H](O)[C@H](NC(=N)N)C[C@@H]1NC(=N)N", "Ki": 24.8},
      {"smiles": "N=C(N)Nc1ccc([C@H]2C[C@@H](O)[C@H](NC(=N)N)C[C@@H]2NC(=N)N)cc1", "Ki": 14.9},
      {"smiles": "N=C(N)Nc1ccc([C@H]2C[C@@H](O)[C@H](NC(=N)N)C[C@@H]2NC(=N)N)c2ccccc12", "Ki": 31.4},
      {"smiles": "N=C(N)Nc1ccc(O[C@H]2C[C@@H](Oc3ccc(NC(=N)N)cc3NC(=N)N)[C@H](NC(=N)N)C[C@@H]2NC(=N)N)c(NC(=N)N)c1", "Ki": 0.065},
      {"smiles": "N=C(N)Nc1ccccc1[C@H]1C[C@@H](O)[C@H](NC(=N)N)C[C@@H]1NC(=N)N", "Ki": 30.6},
      {"smiles": "Cc1cc(NC(=O)O[C@@H]2C[C@H](Oc3ccc(NC(=N)N)cc3N=C(N)N)[C@@H](N=C(N)N)C[C@H]2N=C(N)N)ccc1F", "Ki": 0.5},
      {"smiles": "N=C(N)Nc1cccnc1[C@H]1C[C@@H](O)[C@H](NC(=N)N)C[C@@H]1NC(=N)N", "Ki": 4.1}
    ]}
  ]
}
